US5254801A, “Heterologous dominant conditional lethal gene which is a phosphonate monoester hydrolase and use thereof in plants” (Monsanto Company, priority 1990, dated 1993)

Legend:
LBAA = test: In vivo (3-14C-) glyceryl glyphosate hydrolysis assay in whole cells; format: cell-based; conditions: strain LBAA; three hour incubation, 30° C.
Description: (§1) Bacteria which grew in this medium using glyceryl glyphosate as a sole phosphate source had the ability to cleave both the ester and the phosphonate bond to release the free phosphate. For these bacteria to be useful in the present invention, the first step in the mineralization of glyceryl glyphosate needed is the hydrolysis of the phosphonate ester. Each of the three bacteria which utilized glyceryl glyphosate as a phosphate source were then assayed for a phosphonate monoester hydrolase activity using an in vivo (3-^14 C-) glyceryl glyphosate assay. A 150 ml culture of each bacteria was grown in DF minimal medium with 0.2 mM HK2 PO4 as a phosphate source in a 500 ml flask, 30° C., with shaking. The bacteria were pelleted by centrifugation at 5,000×g for 10 min and resuspended at 10 mg fresh weight/ml. An assay mix included 50 μl cells plus 10 μl (3-^14 C-) glyceryl glyphosate (10,000 cpm/μl) and kept at 30° C. with shaking. After a three hour incubation period, the cells were pelleted in a microfuge and the supernatant injected onto an HPLC anion exchange column and glyphosate analyzed as described above. The pellet was washed twice with 1 ml 10 mM HEPES, pH 7.0, and resuspended in 25 μl buffer. The cells were lysed with 25 μl quench and the debris pelleted in a microfuge. The pellet extract was then analyzed for glyphosate product as described above. […]

T10 = test: as above; format: cell-based; conditions: strain T10; three hour incubation, 30° C.
Description: as §1

PG2982 crude extract = test: In vitro radioactive hydrolysis assay in crude extracts; format: biochemical, Pseudomonas caryophilli; conditions: strain PG2982
Text: The enzymatic reaction can be assayed using labelled (3-^14 C-) glyceryl glyphosate as a substrate and following the conversion to (3-^14 C-)glyphosate as a product using a high pressure liquid chromatography system with a radioactive detector. This assay is the most specific for the phosphonate monoester hydrolase enzymes useful for conditional cell lethality. An enzyme assay consists of 40,000 cpm of labelled (3-^14 C-) glyceryl glyphosate (obtained from NEN Biochemicals), the PEH sample in buffer and buffer to 100 μl final volume. The assay buffer is 10 mM Bis-Tris propane, pH 9.0, plus 100 mM KCl. The reaction is run for 1 hour at 30° C. and then stopped by the addition of 100 μl "quench" which is 100 mM sodium acetate, pH 5.5, in ethanol. […] The radioactivity of the peaks is measured and integrated by a post-column detector. […]
Bacteria which grew in this medium using glyceryl glyphosate as a sole phosphate source had the ability to cleave both the ester and the phosphonate bond to release the free phosphate. […] After a three hour incubation period, the cells were pelleted in a microfuge and the supernatant injected onto an HPLC anion exchange column and glyphosate analyzed as described above. […] The pellet extract was then analyzed for glyphosate product as described above. […]

[1] = tested on: GUS vector control Arabidopsis calli; test: Callus viability on SIM medium with glyceryl glyphosate; format: cell-based
Description: (§2) Arabidopsis was cultured and transformed essentially as described by Valvekens et al., 1988. Arabidopsis ecotype RLD seeds were sterilized in 5% chlorox, 0.05%. Tween20 for 20 min, washed with sterile H2 O and plated on MSO medium (MS salts with minimal organics (Sigma), 0.5 g MES/l pH 5.7, 1% sucrose and 0.8% agar). After 3 weeks the roots were cut away from the shoots and precultured 3 days on callus inducing medium (CIM; Gamborg's B5 salts (Sigma), 2% glucose, 0.5 g/l MES, pH 5.7, 0.8% agar, 0.5 mg/l 2,4-D and 0.05 mg/l kinetin). The roots were than grouped in small bundles of 5-7 roots and cut into 0.5 cm pieces. The root pieces were mixed with a fresh overnight culture of ABI Agrobacterium containing a previously described plant gene expression vector diluted 1:20 in liquid MSO (without agar). After two minutes, the roots were transferred to fresh CIM plates for a two day co-culture. After co-culture, the root pieces were washed 2X with liquid MSO medium and plated on shoot inducing medium (SIM; Gamborg's B5 salts, 2% glucose, 0.5 g/l MES, pH 5.7, 5 mg/l N^6 -(2-isopentenyl)adenine, 0.15 mg/l indole-3-acetic acid, 500 mg/l carbenicillin, 100 mg/l kanamycin and 0.8% agar. Callus which continued to grow and remain green were transformed to fresh SIM after two weeks. As rosettes began to form, they were cut away from the callus and transferred to MSO medium with 1 mg/l indole-3-butyric acid in sterile sundae cups to initiate root formation. After the plants had formed roots they were transferred to soil and grown to maturity to obtain seed.
(§3) Arabidopsis calli transformed with either pMON9429 or pMON9443 which were expressing the selectable marker NPT-II gene as evidenced by growth on 100 μg/ml kanamycin were then evaluated for pehA expression. The calli were transferred to SIM medium containing 100 μg/ml kanamycin and 1 mM glyceryl glyphosate. After 4 weeks, calli were scored for growth and ability to initiate shoots and leaves (+) or for necrosis (-).

[2] = tested on: pMON9429 transgenic Arabidopsis calli (pehA:1); test: as above; format: cell-based
Description: as §2, §3

[3] = tested on: pMON9443 transgenic Arabidopsis calli (pehA:2); test: as above; format: cell-based
Description: as §2, §3

[4] = 1 mM glyceryl glyphosate, 4 weeks, 12 lines scored
[5] = 1 mM glyceryl glyphosate, 4 weeks, 6 lines scored

Compound: O=C(O)CNCP(=O)(O)OCC(O)CO (stereo not drawn) [glyceryl glyphosate, glycine, N-([hydroxy (2,3 dihydroxy propoxy)phosphonyl]methyl)]
- In vivo Hydrolysis of Glyceryl Glyphosate into Glyphosate (LBAA): Yes
- In vivo Hydrolysis of Glyceryl Glyphosate into Glyphosate (T10): Yes
- Hydrolysis of Glyceryl Glyphosate into Glyphosate in Crude Extracts (PG2982 crude extract): Yes
- Viability Score: Growth [1, 4]: 12 number of lines
- Viability Score: Necrosis [1, 4]: 0 number of lines
- Callus growth on protoxin (in words) ([1]; 1 mM protoxin, control calli): able to grow
- Viability Score: Growth [2, 5]: 1 number of lines
- Viability Score: Necrosis [2, 5]: 5 number of lines
- Callus phenotype on protoxin (in words) ([2]; medium containing glyceryl glyphosate, pMON9429 calli): lethality
- Viability Score: Growth [3, 5]: 0 number of lines
- Viability Score: Necrosis [3, 5]: 6 number of lines
- Callus phenotype on protoxin (in words) ([3]; medium containing glyceryl glyphosate, pMON9443 calli): lethality
